Reference: ChEMBL document CHEMBL3885881, “DrugMatrix”

Species on record: Rattus norvegicus
Assay: DrugMatrix - Regimen: Daily Repeat
Assay type: toxicity, organism-based, Sprague-Dawley
Design: regimen Daily Repeat, gender Male, age 6-8 weeks
Conditions: in vivo, po, route oral GAVAGE, vehicle 100 % WATER; for ABSOLUTE BASOPHIL / ABSOLUTE EOSINOPHIL / ABSOLUTE LYMPHOCYTE / ABSOLUTE MONOCYTE / ABSOLUTE SEGMENTED NEUTROPHIL / BASOPHIL / EOSINOPHIL / ERYTHROCYTE COUNT / HEMATOCRIT / HEMOGLOBIN / LEUKOCYTE COUNT / LYMPHOCYTE / MEAN CORPUSCULAR HEMOGLOBIN / MEAN CORPUSCULAR HEMOGLOBIN CONCENTRATION / MEAN CORPUSCULAR VOLUME / MONOCYTE / NEUTROPHIL / NUCLEATED RED BLOOD CELLS / PLATELET COUNT: tissue Blood; for ALANINE AMINOTRANSFERASE / ALBUMIN / ALKALINE PHOSPHATASE / ASPARTATE AMINOTRANSFERASE / BLOOD UREA NITROGEN / CARBON DIOXIDE / CHLORIDE / CHOLESTEROL / CREATINE PHOSPHOKINASE / CREATININE / GLUCOSE / LACTATE DEHYDROGENASE / LIPASE / PHOSPHORUS / POTASSIUM / SODIUM / TOTAL BILIRUBIN / TOTAL PROTEIN / URIC ACID: tissue Plasma
[1] = 11 mg/kg, 120 h, dose level Low, time 5 day
[2] = 40 mg/kg, 72 h, dose level High, time 3 day
[3] = 40 mg/kg, 120 h, dose level High, time 5 day

## CN(C)C(=O)Oc1cccc([N+](C)(C)C)c1.[Br-] [NEOSTIGMINE BROMIDE]
[1]
  ABSOLUTE BASOPHIL: 0 CELLS/uL
  ABSOLUTE EOSINOPHIL: 28.67 CELLS/uL
  ABSOLUTE LYMPHOCYTE: 4930.67 CELLS/uL
  ABSOLUTE MONOCYTE: 109.33 CELLS/uL
  ABSOLUTE SEGMENTED NEUTROPHIL: 798 CELLS/uL
  BASOPHIL: 0%
  EOSINOPHIL: 0.33%
  ERYTHROCYTE COUNT: 5.49 x10E6/uL
  HEMATOCRIT: 34.3%
  HEMOGLOBIN: 13.23 G/DL
  LEUKOCYTE COUNT: 5.87 x10E3/uL
  LYMPHOCYTE: 83%
  MEAN CORPUSCULAR HEMOGLOBIN: 24.1 pg
  MEAN CORPUSCULAR HEMOGLOBIN CONCENTRATION: 38.57 G/DL
  MEAN CORPUSCULAR VOLUME: 62.5 fL
  MONOCYTE: 1.67%
  NEUTROPHIL: 15%
  NUCLEATED RED BLOOD CELLS: 0 /100WBC
  PLATELET COUNT: 970 x10E3/uL
  ALANINE AMINOTRANSFERASE: 54 u/L
  ALBUMIN: 4 G/DL
  ALKALINE PHOSPHATASE: 382.33 u/L
  ASPARTATE AMINOTRANSFERASE: 83 u/L
  BLOOD UREA NITROGEN: 14 mg/dL
  CARBON DIOXIDE: 32.33 mmol/L
  CHLORIDE: 99.33 MEQ/L
  CHOLESTEROL: 67.33 mg/dL
  CREATINE PHOSPHOKINASE: 225.33 u/L
  CREATININE: 0.14 mg/dL
  GLUCOSE: 155.33 mg/dL
  LACTATE DEHYDROGENASE: 116 u/L
  LIPASE: 9.33 u/L
  PHOSPHORUS: 11.53 mg/dL
  POTASSIUM: 5.88 MEQ/L
  SODIUM: 144.8 MEQ/L
  TOTAL BILIRUBIN: 0.17 mg/dL
  TOTAL PROTEIN: 5.8 G/DL
  URIC ACID: 0.8 mg/dL
[2]
  ABSOLUTE BASOPHIL: 0 CELLS/uL
  ABSOLUTE EOSINOPHIL: 29.33 CELLS/uL
  ABSOLUTE LYMPHOCYTE: 8073 CELLS/uL
  ABSOLUTE MONOCYTE: 28.67 CELLS/uL
  ABSOLUTE SEGMENTED NEUTROPHIL: 702.33 CELLS/uL
  BASOPHIL: 0%
  EOSINOPHIL: 0.33%
  ERYTHROCYTE COUNT: 5.28 x10E6/uL
  HEMATOCRIT: 32.2%
  HEMOGLOBIN: 12.53 G/DL
  LEUKOCYTE COUNT: 8.83 x10E3/uL
  LYMPHOCYTE: 91.33%
  MEAN CORPUSCULAR HEMOGLOBIN: 23.7 pg
  MEAN CORPUSCULAR HEMOGLOBIN CONCENTRATION: 38.93 G/DL
  MEAN CORPUSCULAR VOLUME: 60.93 fL
  MONOCYTE: 0.33%
  NEUTROPHIL: 8%
  NUCLEATED RED BLOOD CELLS: 0 /100WBC
  PLATELET COUNT: 857.33 x10E3/uL
  ALANINE AMINOTRANSFERASE: 53.67 u/L
  ALBUMIN: 3.97 G/DL
  ALKALINE PHOSPHATASE: 316.33 u/L
  ASPARTATE AMINOTRANSFERASE: 90.33 u/L
  BLOOD UREA NITROGEN: 13.33 mg/dL
  CARBON DIOXIDE: 31.67 mmol/L
  CHLORIDE: 100.67 MEQ/L
  CHOLESTEROL: 85 mg/dL
  CREATINE PHOSPHOKINASE: 289 u/L
  CREATININE: 0.15 mg/dL
  GLUCOSE: 135.33 mg/dL
  LACTATE DEHYDROGENASE: 137.33 u/L
  LIPASE: 9 u/L
  PHOSPHORUS: 11.43 mg/dL
  POTASSIUM: 6.3 MEQ/L
  SODIUM: 143.1 MEQ/L
  TOTAL BILIRUBIN: 0.2 mg/dL
  TOTAL PROTEIN: 6.03 G/DL
  URIC ACID: 0.83 mg/dL
[3]
  ABSOLUTE BASOPHIL: 0 CELLS/uL
  ABSOLUTE EOSINOPHIL: 26.33 CELLS/uL
  ABSOLUTE LYMPHOCYTE: 8117.33 CELLS/uL
  ABSOLUTE MONOCYTE: 169.67 CELLS/uL
  ABSOLUTE SEGMENTED NEUTROPHIL: 1053.33 CELLS/uL
  BASOPHIL: 0%
  EOSINOPHIL: 0.33%
  ERYTHROCYTE COUNT: 5.39 x10E6/uL
  HEMATOCRIT: 33.9%
  HEMOGLOBIN: 13 G/DL
  LEUKOCYTE COUNT: 9.37 x10E3/uL
  LYMPHOCYTE: 87%
  MEAN CORPUSCULAR HEMOGLOBIN: 24.13 pg
  MEAN CORPUSCULAR HEMOGLOBIN CONCENTRATION: 38.37 G/DL
  MEAN CORPUSCULAR VOLUME: 62.93 fL
  MONOCYTE: 1.67%
  NEUTROPHIL: 11%
  NUCLEATED RED BLOOD CELLS: 0.33 /100WBC
  PLATELET COUNT: 1139.67 x10E3/uL
  ALANINE AMINOTRANSFERASE: 52.33 u/L
  ALBUMIN: 3.97 G/DL
  ALKALINE PHOSPHATASE: 386 u/L
  ASPARTATE AMINOTRANSFERASE: 89.67 u/L
  BLOOD UREA NITROGEN: 15.33 mg/dL
  CARBON DIOXIDE: 32.33 mmol/L
  CHLORIDE: 102.33 MEQ/L
  CHOLESTEROL: 79.33 mg/dL
  CREATINE PHOSPHOKINASE: 258 u/L
  CREATININE: 0.16 mg/dL
  GLUCOSE: 148.67 mg/dL
  LACTATE DEHYDROGENASE: 117.33 u/L
  LIPASE: 9.33 u/L
  PHOSPHORUS: 11.17 mg/dL
  POTASSIUM: 6.13 MEQ/L
  SODIUM: 148.3 MEQ/L
  TOTAL BILIRUBIN: 0.2 mg/dL
  TOTAL PROTEIN: 5.87 G/DL
  URIC ACID: 0.43 mg/dL
